The experiment relates to B6C3F1 mice, B16 melanoma ip, median survival T/C. Description: NCI In Vivo Anticancer Drug Screen. Data for tumor model B16 Melanoma (intraperitoneal) in B6C3F1 mice. As to conditions: endpoint: median survival time, higher = longer survival. The procedure, abridged:
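Tumor-bearing mice received test compound; a separate group got vehicle only. Survival was then compared, with results reported as treated over control.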

The mark [1] stands for this setting: dose: 25.0 mg/kg/injection, schedule: Q01DX009 (ip), vehicle: saline.
The mark [2] stands for this setting: dose: 50.0 mg/kg/injection, schedule: Q01DX009 (ip), vehicle: saline.
The mark [3] stands for this setting: dose: 100.0 mg/kg/injection, schedule: Q01DX009 (ip), vehicle: saline.
The mark [4] stands for this setting: dose: 200.0 mg/kg/injection, schedule: Q01DX009 (ip), vehicle: saline.
The mark [5] stands for this setting: dose: 400.0 mg/kg/injection, schedule: Q01DX009 (ip), vehicle: saline.
Setting [6] is: dose: 50.0 mg/kg/injection, schedule: Q01DX009 (ip), vehicle: Klucel (hydroxypropylcellulose) (HPC).
Setting [7] is: dose: 100.0 mg/kg/injection, schedule: Q01DX009 (ip), vehicle: Klucel (hydroxypropylcellulose) (HPC).
Setting [8] is: dose: 200.0 mg/kg/injection, schedule: Q01DX009 (ip), vehicle: Klucel (hydroxypropylcellulose) (HPC).
Where [9] appears, read: dose: 25.0 mg/kg/injection, schedule: Q01DX009 (ip), vehicle: saline with Tween-80.
[10] abbreviates: dose: 50.0 mg/kg/injection, schedule: Q01DX009 (ip), vehicle: saline with Tween-80.
[11] abbreviates: dose: 100.0 mg/kg/injection, schedule: Q01DX009 (ip), vehicle: saline with Tween-80.
The mark [12] stands for this setting: dose: 200.0 mg/kg/injection, schedule: Q01DX009 (ip), vehicle: saline with Tween-80.
Setting [13] is: dose: 400.0 mg/kg/injection, schedule: Q01DX009 (ip), vehicle: saline with Tween-80.
The mark [14] stands for this setting: dose: 1.5 mg/kg/injection, schedule: Q01DX009 (ip), vehicle: saline with Tween-80.
Where [15] appears, read: dose: 6.25 mg/kg/injection, schedule: Q01DX009 (ip), vehicle: saline with Tween-80.

Several values for one entry are separate records, joined by “and”; a condition that tells them apart may be missing. Equal values may be shown once. Toxic doses and inconclusive results are not listed.

`COc1cccc2c1C(=O)c1c(O)c3c(c(O)c1C2=O)C[C@@](O)(/C(C)=N\O)C[C@@H]3OC1CC(N)C(O)C(C)O1` (some centres not stated): the T/C (dose: 1.5 mg/kg/injection, schedule: Q01DX009 (ip), vehicle: saline) was 160 % of control; the T/C (dose: 3.13 mg/kg/injection, schedule: Q01DX009 (ip), vehicle: water) is 150 % of control; the T/C (dose: 6.0 mg/kg/injection, schedule: Q01DX009 (ip), vehicle: saline) is 164 % of control; the T/C (dose: 6.25 mg/kg/injection, schedule: Q01DX009 (ip), vehicle: water) was 182 % of control; the T/C (dose: 12.0 mg/kg/injection, schedule: Q01DX009 (ip), vehicle: saline) is 217 % of control; the T/C (dose: 12.5 mg/kg/injection, schedule: Q01DX009 (ip), vehicle: water) is 178 % of control. Besides, the T/C (dose: 24.0 mg/kg/injection, schedule: Q01DX009 (ip), vehicle: saline) is 204 % of control.

In the case of `COc1cccc2c1C(=O)c1c(O)c3c(c(O)c1C2=O)C[C@@](O)(C(C)O)C[C@@H]3OC1CC(N2CCOCC2)C(O)C(C)O1` (some centres not stated), the T/C was 111 % of control (dose: 0.06 mg/kg/injection, schedule: Q01DX001 (ip), vehicle: water); 115 % of control (dose: 0.13 mg/kg/injection, schedule: Q01DX001 (ip), vehicle: water); 107 % of control (dose: 62.5 micrograms/kg/injection, schedule: Q01DX001 (ip), vehicle: water); 106 % of control (dose: 125.0 micrograms/kg/injection, schedule: Q01DX001 (ip), vehicle: water); 120 % of control (dose: 250.0 micrograms/kg/injection, schedule: Q01DX001 (ip), vehicle: water).

On to `O=C(NC(=S)Nc1ccccc1)c1ccccc1`, for which the T/C reads like this: (dose: 9.4 mg/kg/injection, schedule: Q01DX009 (ip), vehicle: Klucel (hydroxypropylcellulose) (HPC)) 99 % of control; (dose: 18.75 mg/kg/injection, schedule: Q01DX009 (ip), vehicle: Klucel (hydroxypropylcellulose) (HPC)) 94 % of control; (dose: 37.5 mg/kg/injection, schedule: Q01DX009 (ip), vehicle: Klucel (hydroxypropylcellulose) (HPC)) 101 % of control; (dose: 75.0 mg/kg/injection, schedule: Q01DX009 (ip), vehicle: Klucel (hydroxypropylcellulose) (HPC)) 103 % of control.

On to `CN(C)C=O`, for which the T/C was 99 % of control under setting [1]; 112 % of control and 100 % of control under setting [2]; 88 % of control and 96 % of control under setting [3]; 86 % of control and 93 % of control under setting [4]; 122 % of control and 98 % of control under setting [5]; 108 % of control and 122 % of control (dose: 800.0 mg/kg/injection, schedule: Q01DX009 (ip), vehicle: saline). Also, the T/C (dose: 1600.0 mg/kg/injection, schedule: Q01DX009 (ip), vehicle: saline) is 116 % of control.

On to `O=S(O)O`, for which the T/C is, setting by setting: under setting [2], 107 % of control; under setting [3], 115 % of control; under setting [4], 98 % of control; under setting [5], 102 % of control.

`CC(C)(C)NC(C1=CC(C)(C)c2ccccc2C1=O)c1ccccc1` (configuration not stated): the T/C reads like this: under setting [6], 99 % of control; under setting [7], 88 % of control; under setting [8], 98 % of control.

On to `S=c1[nH]cc2cnccn12`, for which the T/C is 94 % of control and 95 % of control (dose: 12.5 mg/kg/injection, schedule: Q01DX009 (ip), vehicle: saline with Tween-80); 93 % of control and 98 % of control under setting [9]; 93 % of control and 96 % of control under setting [10]; 97 % of control and 100 % of control under setting [11]; 91 % of control and 92 % of control under setting [12]; 97 % of control under setting [13].

Take `CN(C)N=Nc1cccc2c1N(C)c1ccc(Cl)cc1S2`: the T/C by setting is: (dose: 6.25 mg/kg/injection, schedule: Q01DX009 (ip), vehicle: other) 109 % of control; (dose: 12.5 mg/kg/injection, schedule: Q01DX009 (ip), vehicle: other) 108 % of control; (dose: 25.0 mg/kg/injection, schedule: Q01DX009 (ip), vehicle: other) 103 % of control; (dose: 50.0 mg/kg/injection, schedule: Q01DX009 (ip), vehicle: other) 104 % of control; (dose: 100.0 mg/kg/injection, schedule: Q01DX009 (ip), vehicle: other) 89 % of control.

Consider `O=C(NCc1ccccc1)c1cccnc1`, for which the T/C was 94 % of control under setting [11], 94 % of control under setting [12] and 93 % of control under setting [13].

Regarding `COc1cccc2c1C(=O)c1c(O)c3c(c(O)c1C2=O)C[C@@](O)(C(C)=O)C[C@@H]3OC1CC(N(C)Cc2ccccc2)C(O)C(C)O1` (some centres not stated), the T/C is 114 % of control (dose: 3.13 mg/kg/injection, schedule: Q01DX001 (ip), vehicle: distilled water + Tween-80) and 122 % of control (dose: 12.5 mg/kg/injection, schedule: Q01DX001 (ip), vehicle: distilled water + Tween-80).

For the compound `CN=C(N)N/N=C(\C)c1ccc2c(c1)Cc1cc(/C(C)=N/NC(N)=NC)ccc1-2`, the T/C runs as follows: (dose: 0.75 mg/kg/injection, schedule: Q01DX009 (ip), vehicle: saline with Tween-80) 97 % of control; under setting [14], 101 % of control.

Regarding `CCC1(O)C(=O)OCc2c1cc1n(c2=O)Cc2cc3ccccc3nc2-1` (configuration not stated), the T/C (dose: 0.75 mg/kg/injection, schedule: Q01DX009 (ip), vehicle: other) is 156 % of control and the T/C (dose: 1.5 mg/kg/injection, schedule: Q01DX009 (ip), vehicle: other) is 165 % of control.

For `CCC1=C2C(=O)c3ccccc3C2=C(C)S(=O)(=O)O1`, the T/C (dose: 1.56 mg/kg/injection, schedule: Q01DX009 (ip), vehicle: saline with Tween-80) is 98 % of control; the T/C (dose: 3.12 mg/kg/injection, schedule: Q01DX009 (ip), vehicle: saline with Tween-80) is 98 % of control; the T/C under setting [15] was 91 % of control and 93 % of control.

Consider `COCCCNC1=C(C#N)C(=O)NC(c2cccc([N+](=O)[O-])c2)S1` (configuration not stated), for which the T/C is, setting by setting: (dose: 3.13 mg/kg/injection, schedule: Q01DX009 (ip), vehicle: saline with Tween-80) 112 % of control and 98 % of control; under setting [15], 91 % of control and 96 % of control; under setting [10], 94 % of control and 101 % of control (2×); under setting [11], 111 % of control and 98 % of control; under setting [12], 111 % of control; under setting [13], 87 % of control.

For `O=C1O/C(=C2\OCc3ccccc32)c2ccccc21`, the T/C is 115 % of control under setting [9], 119 % of control under setting [10], 96 % of control under setting [11] and 102 % of control under setting [12].

Consider `CN=C(N)N/N=C(\c1ccccc1)c1ccc(Br)cc1`, for which the T/C was 103 % of control under setting [14]; 107 % of control (dose: 3.0 mg/kg/injection, schedule: Q01DX009 (ip), vehicle: saline with Tween-80); 97 % of control (dose: 6.0 mg/kg/injection, schedule: Q01DX009 (ip), vehicle: saline with Tween-80); 96 % of control (dose: 12.0 mg/kg/injection, schedule: Q01DX009 (ip), vehicle: saline with Tween-80).

Take `CC(N)C(=O)NC(CC(N)=O)C(=O)O` (configuration not stated): the T/C runs as follows: under setting [2], 103 % of control; under setting [3], 94 % of control; under setting [4], 97 % of control.

As for `COc1cc(OC)c(OC)cc1/C=C\c1ccnc2ccccc12`, the T/C reads like this: (dose: 12.5 mg/kg/injection, schedule: Q01DX009 (ip), vehicle: Klucel (hydroxypropylcellulose) (HPC)) 98 % of control; (dose: 25.0 mg/kg/injection, schedule: Q01DX009 (ip), vehicle: Klucel (hydroxypropylcellulose) (HPC)) 105 % of control; under setting [6], 108 % of control and 111 % of control; under setting [7], 120 % of control and 107 % of control; under setting [8], 97 % of control; (dose: 400.0 mg/kg/injection, schedule: Q01DX009 (ip), vehicle: Klucel (hydroxypropylcellulose) (HPC)) 151 % of control.

For the compound `C1CNCOC1`, the T/C runs as follows: (dose: 6.25 mg/kg/injection, schedule: Q01DX009 (ip), vehicle: saline) 112 % of control and 95 % of control; (dose: 12.5 mg/kg/injection, schedule: Q01DX009 (ip), vehicle: saline) 102 % of control and 104 % of control; under setting [1], 96 % of control and 101 % of control; under setting [2], 96 % of control and 103 % of control; under setting [3], 112 % of control; under setting [4], 105 % of control.

Source of the values: PubChem BioAssay AID200 (DTP/NCI, 2004).
